Source: patent US4841076A, “Benzopyran derivatives” (Daiichi Seiyaku Co., Ltd., priority 1986, dated 1989)

Columns and labels:
[1] = tested on: hypertensive rats; assay: Antihypertensive Activity (DOCA/saline hypertensive rats, tail cuff); assay type: in vivo; conditions: DOCA hypertensive rats, orally once a day, systolic pressure vs control
Procedure: Four-week-old male rats weighing 120 to 150 g were subcutaneously injected with DOCA (desoxycorticosterone acetate) and fed on a 1% saline solution to cause hypertension in accordance with the method of Seyle, et al. as described in American Heart Journal, Vol. 37, 1009 (1949). The test compound was orally administered to the hypertensive rats once a day for 4 weeks. The blood pressure of the animal was measured by a tail cuff method every one week from the start of the administration.
In Table 3, antihypertensive activity (ΔmmHg) was obtained by subtracting the systolic pressure of the test group from that of the control group.

[2] = tested on: male rats; assay: Diuretic Activity and Natriuretic Activity; assay type: in vivo; conditions: 300 mg/Kg, orally, urine collected for 5 hours, control value subtracted
Procedure: Male rats weighing 150 to 250 g were fasted overnight and, the next morning, orally administered with either (1) 25 ml/Kg of physiological saline (control group) or (2) a test compound which was suspended in 0.5 wt % carboxymethylcellulose. Urine after dosing was collected for 5 hours, and urinary volume and sodium concentration were measured. Each parameter was calculated by subtracting the value of the control group from that of the test group.

[3] = tested on: male rats; assay: Uricosuric Activity (fractional excretion of uric acid); assay type: in vivo; conditions: orally, 30 min urine from 60 min after dosing
Procedure: Male rats weighing 150 to 250 g were fasted overnight and, the next morning, orally administered with either (1) 25 ml/Kg of physiological saline (control group) or (2) a test compound which was suspended in 0.5 wt % carboxymethylcellulose. After 60 minutes from the administration of the test compound, urine over a period of 30 minutes was collected. Thereafter, blood was taken from the arotid artery under anesthesia, and uric acid concentrations in the urine and the serum were determined by the enzyme method. On the other hand, […] concentrations in the urine and the serum were determined by a Jaffe's method to obtain the fractional excretion of uric acid. Percent of uric acid excretion was calculated by dividing the value of fractional excretion in the test group by that in the control group.

[4] = Acute toxicity (LD50); conditions: rat, in vivo, po; P.O. in Rats
Source text: The compound of the present invention has a low toxicity, and the acute toxicity (LD50) of typical compounds of formula (I) is shown in the following Table 4.

[5] = in words, literature; cited from earlier work

Compound	Antihypertensive Activity After 1 Week ([1]; 100 mg/Kg)	Antihypertensive Activity After 2 Weeks ([1]; 100 mg/Kg)	Antihypertensive Activity After 3 Weeks ([1]; 100 mg/Kg)	Increase in Urinary Na^+ [2]	Increase in Urinary Output [2]	% of Uric Acid Excretion ([3]; 100 mg/Kg)	LD50 [4]	Antihypertensive Activity After 1 Week ([1]; 300 mg/Kg)	Antihypertensive Activity After 2 Weeks ([1]; 300 mg/Kg)	Antihypertensive Activity After 3 Weeks ([1]; 300 mg/Kg)	diuretic, saluretic and uricosuric activities [5]	% of Uric Acid Excretion ([3]; 200 mg/Kg)
O=C(O)COc1cc(Cl)c2c(=O)c(-c3ccccc3)coc2c1 [(a), [(5-Chloro-4-oxo-3-phenyl-4H-1-benzopyran-7-yl)oxy]acetic acid]	13.7 ΔmmHg	37.0 ΔmmHg	49.0 ΔmmHg	1220 ΔμEq	51.8 Δml/Kg	136%	1020 mg/kg					
Cc1ccccc1-c1coc2cc(OCC(=O)O)cc(Cl)c2c1=O [(d), {[5-Chloro-3-(2-methylphenyl)-4-oxo-4H-1-benzopyran-7-yl]oxy}acetic acid]	12.1 ΔmmHg	14.3 ΔmmHg	15.7 ΔmmHg	1196 ΔμEq	49.6 Δml/Kg	56%						
O=C(O)COc1cc(Cl)c2c(=O)c(Cc3ccccc3)coc2c1 [(e), [(3-Benzyl-5-chloro-4-oxo-4H-1-benzopyran-7-yl)oxy]acetic acid]	6.2 ΔmmHg	28.7 ΔmmHg	39.4 ΔmmHg	967 ΔμEq	37.9 Δml/Kg	39%						
Cc1cc(OCC(=O)O)cc2occ(-c3ccccc3)c(=O)c12 [(b), [(5-Methyl-4-oxo-3-phenyl-4H-1-benzopyran-7-yl)oxy]acetic acid]	10.0 ΔmmHg	17.9 ΔmmHg	15.0 ΔmmHg	987 ΔμEq	23.6 Δml/Kg	66%	936 mg/kg					
O=C(O)COc1ccc(C(=O)c2cccs2)c(Cl)c1Cl [Tienilic acid, [2,3-dichloro-4-(2-thenoyl)phenoxy]acetic acid, reference compound]				353.4 ΔμEq	10.2 Δml/Kg			23.6 ΔmmHg	35.0 ΔmmHg	44.3 ΔmmHg	having diuretic and uricosuric activities	38%
O=C(O)COc1cc(Cl)c2c(=O)c(-c3ccccc3Cl)coc2c1 [(c), {[5-Chloro-3-(2-chlorophenyl)-4-oxo-4H-1-benzopyran-7-yl]oxy}acetic acid]	13.6 ΔmmHg	20.7 ΔmmHg	29.3 ΔmmHg	1015 ΔμEq	41.0 Δml/Kg	36%	1410 mg/kg					
CC1(c2ccccc2)Cc2cc(OCC(=O)O)c(Cl)c(Cl)c2C1=O (centres unmarked) [indacrinone]											having diuretic and uricosuric activities	
